The text below walks through data of patent US20030044399A1, “Method of treatment” (SmithKline Beecham Corporation, priority 1998, published 2003).

In one assay the target is Schisto B 1 (Schistosoma mansoni, UniProt P25792). In words: Cysteine protease inhibition, progress curve method, schistosoma B 1. It is filed as biochemical. To be noted: 10 uM Cbz-Phe-Arg-AMC, 100 mM Na acetate pH 5.5, 5 mM cysteine; read-out: Schisto B 1 Ki. The procedure:
(§1) Standard assay conditions for the determination of kinetic constants used 10 uM fluorogenic peptide substrate, Cbz-Phe-Arg-AMC for the cysteine proteases from Leishmania spp and Schistosoma Mansoni, Cbz-Leu-Arg-AMC for the cysteine proteases from Plasmodium falciparum and Trypanosoma brucei rhodesiensi, and Ac-Lys-Glu-Lys-Leu-Arg-AMC (4 uM final substrate concentration) for the cysteine protease from Trypoanosoma cruzi, and were determined in 100 mM Na acetate at pH 5.5 containing 5 mM cysteine. Stock substrate solutions were prepared at concentrations of […] in DMSO with 10 uM (4 uM for Ac-Lys-Glu-Lys-Leu-Arg-AMC) final substrate concentration in the assays. The final DMSO concentration was 2% and the final volume was 100 uL. All assays were conducted at ambient temperature. Product progress curves were generated over 20 to 30 minutes following formation of AMC product.
(§2) Potential inhibitors were evaluated using the progress curve method. Assays were carried out in the presence of variable concentrations of test compound. Reactions were initiated by addition of enzyme to buffered solutions of inhibitor and substrate. Data analysis was conducted according to one of two procedures depending on the appearance of the progress curves in the presence of inhibitors. For those compounds whose progress curves were linear, apparent inhibition constants (Ki,app) were calculated according to equation 1 (Brandt et al., Biochemitsry, 1989, 28, 140):
(§3) v=VmA/[Ka(1+I/Ki,app)+A] (1)
(§4) Where v is the velocity of the reaction with maximal velocity Vm, A is the concentration of substrate with Michaelis constant of Ka, and I is the concentration of inhibitor.
(§5) [AMC]=vsst+(v0−vss)[1−exp (−kobst)]/kobs (2)
(§6) Where [AMC] is the concentration of product formed over time t, v0 is the initial reaction velocity and vss is the final steady state rate. Values for kobs were then analyzed as a linear function of inhibitor concentration to generate an apparent second order rate constant (kobs/inhibitor concentration or kobs/[I]) describing the time-dependent inhibition. A complete discussion of this kinetic treatment has been fully described (Morrison et al., Adv. Enzymol. Relat. Areas Mol. Biol., 1988, 61, 201).
(§7) Exemplary inhibition data for the compounds used in the present method collected in accordance with the above-described procedure are listed in Table I.

The target in another assay is T1, Leishmania B (UniProt P90627).
T1 sequence (P90627 1-340): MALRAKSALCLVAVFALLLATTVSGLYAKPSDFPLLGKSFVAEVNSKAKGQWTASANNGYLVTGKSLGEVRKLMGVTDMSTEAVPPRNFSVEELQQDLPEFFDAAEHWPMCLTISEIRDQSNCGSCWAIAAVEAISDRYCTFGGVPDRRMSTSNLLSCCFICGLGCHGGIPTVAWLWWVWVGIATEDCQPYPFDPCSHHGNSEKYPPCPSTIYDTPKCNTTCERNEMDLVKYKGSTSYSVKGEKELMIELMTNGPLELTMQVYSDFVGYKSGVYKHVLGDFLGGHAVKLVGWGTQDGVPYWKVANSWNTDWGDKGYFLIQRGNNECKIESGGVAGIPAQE
In words: Cysteine protease inhibition, progress curve method, leishmania B. It is filed as biochemical, Leishmania spp. As to conditions: read-out: Leishmania B Ki nM; 10 uM Cbz-Phe-Arg-AMC, 100 mM Na acetate pH 5.5, 5 mM cysteine. The procedure: as §1, §2, §3, §4, §5, §6, §7

Another assay concerns the target Rhodazain (Trypanosoma brucei rhodesiense, UniProt Q95PM0). The experiment in a line: Cysteine protease inhibition, progress curve method, rhodazain. Type of assay: biochemical, Trypanosoma brucei rhodesiensi. To be noted: Rhodazain Ki (nM), 10 uM Cbz-Leu-Arg-AMC, 100 mM Na acetate pH 5.5, 5 mM cysteine.
For the next assay, the target named is Schisto B 2 (Schistosoma mansoni, UniProt Q95PM1). The experiment in a line: Cysteine protease inhibition, progress curve method, schistosoma B 2. It is filed as biochemical. As to conditions: 10 uM Cbz-Phe-Arg-AMC, 100 mM Na acetate pH 5.5, 5 mM cysteine. As for the experimental part:
as §1, §2, §3, §4, §5, §6, §7

The next assay deals with Cruzain (Trypanosoma cruzi, UniProt P25779). In words: Cysteine protease inhibition, progress curve method, cruzain. Type of assay: biochemical. As to conditions: 4 uM Ac-Lys-Glu-Lys-Leu-Arg-AMC, 100 mM Na acetate pH 5.5, 5 mM cysteine; read-out: Cruzain Ki. In short, it runs like this:
(§8)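 Buffer was 100 mM sodium acetate pH 5.5 with 5 mM cysteine and 2% DMSO, at ambient temperature; reactions started with enzyme, and AMC formation was followed for 20–30 min. Substrates: Leishmania and Schistosoma, 10 uM Cbz-Phe-Arg-AMC; falcipain, 10 uM Cbz-Leu-Arg-AMC; cruzain, 4 uM Ac-Lys-Glu-Lys-Leu-Arg-AMC. Linear curves gave Ki,app; curved ones gave kobs/[I].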

The target in another assay is Falcipain 2 (Plasmodium falciparum, UniProt Q8I6U4). The experiment in a line: Cysteine protease inhibition, progress curve method, falcipain. It is filed as biochemical. To be noted: 10 uM Cbz-Leu-Arg-AMC, 100 mM Na acetate pH 5.5, 5 mM cysteine. Summed up:
as §8

The next assay concerns the target Leishmania L (Leishmania major, UniProt P90628). The experiment in a line: Cysteine protease inhibition, progress curve method, leishmania L. Type of assay: biochemical, Leishmania spp. To be noted: 10 uM Cbz-Phe-Arg-AMC, 100 mM Na acetate pH 5.5, 5 mM cysteine. As for the experimental part:
as §1, with “Product progress curves were generated over 20 to 30 minutes following formation of AMC product.” left out
Potential inhibitors were evaluated using the progress curve method. […] For those compounds whose progress curves were linear, apparent inhibition constants (Ki,app) were calculated according to equation 1 (Brandt et al., Biochemitsry, 1989, 28, 140): […]
Where [AMC] is the concentration of product formed over time t, v0 is the initial reaction velocity and vss is the final steady state rate. Values for kobs were then analyzed as a linear function of inhibitor concentration to generate an apparent second order rate constant (kobs/inhibitor concentration or kobs/[I]) describing the time-dependent inhibition. […]

Sequence of Rhodazain (Q95PM0 entry or part of it): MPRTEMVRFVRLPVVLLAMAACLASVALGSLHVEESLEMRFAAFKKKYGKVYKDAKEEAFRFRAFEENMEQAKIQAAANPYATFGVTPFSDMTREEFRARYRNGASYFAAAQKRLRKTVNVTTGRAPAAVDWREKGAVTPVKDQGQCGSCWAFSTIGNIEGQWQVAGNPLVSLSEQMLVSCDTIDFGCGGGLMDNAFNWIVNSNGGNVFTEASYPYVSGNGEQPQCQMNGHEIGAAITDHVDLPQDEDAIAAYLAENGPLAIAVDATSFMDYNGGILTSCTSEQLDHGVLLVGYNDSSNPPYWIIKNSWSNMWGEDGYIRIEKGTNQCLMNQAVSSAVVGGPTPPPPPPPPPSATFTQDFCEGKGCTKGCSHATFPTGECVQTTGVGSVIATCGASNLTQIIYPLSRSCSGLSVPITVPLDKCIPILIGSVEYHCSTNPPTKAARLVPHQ
Sequence of Schisto B 1 (P25792 89-340): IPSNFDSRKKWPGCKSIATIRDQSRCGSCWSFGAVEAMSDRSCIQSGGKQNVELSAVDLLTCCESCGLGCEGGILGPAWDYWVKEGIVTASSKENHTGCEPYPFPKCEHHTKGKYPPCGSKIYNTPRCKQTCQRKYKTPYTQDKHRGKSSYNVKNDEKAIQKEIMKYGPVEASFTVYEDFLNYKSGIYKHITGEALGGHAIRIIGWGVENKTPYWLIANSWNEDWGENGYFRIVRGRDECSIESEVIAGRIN
Sequence of Schisto B 2 (Q95PM1 entry or part of it): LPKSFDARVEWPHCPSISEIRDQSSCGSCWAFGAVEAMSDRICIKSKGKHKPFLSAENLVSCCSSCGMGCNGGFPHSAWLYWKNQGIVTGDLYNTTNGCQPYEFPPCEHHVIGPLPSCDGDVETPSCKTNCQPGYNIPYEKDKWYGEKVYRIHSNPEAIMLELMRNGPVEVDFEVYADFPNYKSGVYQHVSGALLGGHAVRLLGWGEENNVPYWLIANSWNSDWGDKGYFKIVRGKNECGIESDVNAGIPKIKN
Sequence of Cruzain (P25779 123-337): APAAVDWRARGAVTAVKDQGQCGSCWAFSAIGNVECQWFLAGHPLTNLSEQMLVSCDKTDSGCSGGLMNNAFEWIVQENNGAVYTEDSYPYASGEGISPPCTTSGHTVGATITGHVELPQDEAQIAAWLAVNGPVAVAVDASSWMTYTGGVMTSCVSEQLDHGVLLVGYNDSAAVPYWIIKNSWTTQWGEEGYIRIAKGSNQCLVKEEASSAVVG
Sequence of Falcipain 2 (Q8I6U4 244-484): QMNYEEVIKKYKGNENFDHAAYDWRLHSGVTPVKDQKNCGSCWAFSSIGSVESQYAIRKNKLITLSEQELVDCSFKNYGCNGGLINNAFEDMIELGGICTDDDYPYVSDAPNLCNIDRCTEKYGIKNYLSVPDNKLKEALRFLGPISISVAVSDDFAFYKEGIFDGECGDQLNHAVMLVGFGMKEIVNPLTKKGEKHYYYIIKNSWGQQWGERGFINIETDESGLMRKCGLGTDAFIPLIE
Sequence of Leishmania L (P90628 126-443): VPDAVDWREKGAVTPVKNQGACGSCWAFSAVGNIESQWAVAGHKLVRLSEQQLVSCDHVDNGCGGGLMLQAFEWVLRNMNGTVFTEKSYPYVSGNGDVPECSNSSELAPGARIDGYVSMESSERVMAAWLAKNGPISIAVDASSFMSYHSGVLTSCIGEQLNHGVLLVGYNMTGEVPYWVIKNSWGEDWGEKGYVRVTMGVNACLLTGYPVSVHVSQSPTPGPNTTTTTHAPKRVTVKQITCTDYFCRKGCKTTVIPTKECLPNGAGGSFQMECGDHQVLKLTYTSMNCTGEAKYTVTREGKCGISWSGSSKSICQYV

`CC(C)CC(NC(=O)c1cc2ccccc2o1)C(=O)NC1CC[C@@H](C)N(S(=O)(=O)c2ccccn2)CC1=O` (single isomer, unassigned) [Example 182]: the Ki (commonly a dissociation constant, usually derived from enzyme kinetics or from competition with a known ligand) came out at 61 nM at Schisto B 1, 4.3 nM at Leishmania B, 1.1 nM at Rhodazain and 45 nM on Schisto B 2.
With `O=C(N[C@@H](Cc1ccc2ccccc2c1)C(=O)NC1CCCN(S(=O)(=O)c2ccccn2)CC1=O)c1cccc2ccccc12` (single isomer, unassigned) [Example 188], the Ki came out at 24 nM on Schisto B 1, 2.8 nM at Leishmania B, 4 nM at Rhodazain and 22 nM at Schisto B 2.
Regarding `COc1ccc2oc(C(=O)N[C@@H](CC(C)C)C(=O)N[C@H]3CCCN(S(=O)(=O)c4cccc(Cl)c4)CC3=O)cc2c1` [Example 89, 5-Methoxy-benzofuran-2-carboxylic acid-{(S)-1-[1-(3-chloro-benzenesulfonyl)-3-oxo-azepan-4-ylcarbamoyl]-3-methyl-butyl}-amide], the Ki on Schisto B 1 was found to be 34 nM; on Cruzain it was 11 nM; at Leishmania B, 24 nM; on Schisto B 2 it was 130 nM.
For `CC(C)C[C@H](NC(=O)c1cc2ccccc2s1)C(=O)N[C@@H]1CCCN(S(=O)(=O)c2ccc(F)cc2)CC1=O` [Example 108, Benzo[b]thiophene-2-carboxylic acid-{(S)-1-[1-(4-fluoro-benzenesulfonyl)-3-oxo-azepan-4-ylcarbamoyl]-3-methyl-butyl}-amide], the Ki is 34 nM at Schisto B 1, 20 nM at Cruzain, 9.4 nM at Leishmania B and 110 nM on Schisto B 2.
Turning to `CC(C)C[C@H](NC(=O)c1cc2ccccc2o1)C(=O)N[C@H]1CCCN(S(=O)(=O)c2ccc(Cl)cc2)CC1=O` [Example 131, Benzofuran-2-carboxylic acid {(S)-1-[1-(4-chloro-benzenesulfonyl)-3-oxo-azepan-4-ylcarbamoyl]-3-methyl-butyl}-amide], the figures for the Ki at Schisto B 1, on Leishmania B and at Schisto B 2 were 75 nM, 11 nM and 300 nM, respectively.
Take `COc1ccc2oc(C(=O)N[C@@H](CC(C)C)C(=O)N[C@H]3CCCN(S(=O)(=O)c4ccc(Cl)cc4)CC3=O)cc2c1` [Example 132, 5-Methoxy-benzofuran-2-carboxylic acid {(S)-1-[1-(4-chloro-benzenesulfonyl)-3-oxo-azepan-4-ylcarbamoyl]-3-methyl-butyl}-amide]: the Ki at Schisto B 1 stood at 150 nM; at Leishmania B it was 8.1 nM; at Schisto B 2, 880 nM.
On to `CC(C)C[C@H](NC(=O)c1cc2ccccc2s1)C(=O)N[C@H]1CCCN(S(=O)(=O)c2ccc(Cl)cc2)CC1=O` [Example 135, Benzo[b]thiophene-2-carboxylic acid-{(S)-1-[1-(4-chloro-benzenesulfonyl)-3-oxo-azepan-4-ylcarbamoyl]-3-methyl-butyl}-amide], for which the Ki on Schisto B 1 was found to be 75 nM; at Leishmania B, 8 nM; on Schisto B 2, 270 nM.
For the compound `O=C(N[C@@H](Cc1ccc2ccccc2c1)C(=O)NC1CCCN(S(=O)(=O)c2ccccn2)CC1=O)c1cccc2cccnc12` (stereo partly drawn) [Example 174, Quinoline-8-carboxylic acid {(S)-2-naphthalen-2-yl-1-[3-oxo-1-(pyridine-2-sulfonyl)-azepan-4-ylcarbamoyl)-ethyl]-amide], the Ki at Schisto B 1 turned out to be 27 nM; at Leishmania B, 1.7 nM; at Rhodazain, 4.7 nM; at Schisto B 2, 8.3 nM.
For `O=C(N[C@@H](Cc1ccc2ccccc2c1)C(=O)NC1CCCN(S(=O)(=O)c2ccccn2)CC1=O)c1cccc2ccccc12` (stereo partly drawn) [Example 175, Naphthalene-1-carboxylic acid {(S)-2-naphthalen-2-yl-1-[3-oxo-1-(pyridine-2-sulfonyl)-azepan-4-ylcarbamoyl)-ethyl]-amide], the Ki at Schisto B 1 amounted to 37 nM; on Leishmania B it was 1.7 nM; at Rhodazain, 5.6 nM; on Schisto B 2, 21 nM.
As to `CC(C)C[C@H](NC(=O)c1cc2sccc2s1)C(=O)N[C@H]1C[C@H](C)CN(S(=O)(=O)c2ccccn2)CC1=O` [Example 200, Thieno[3,2-]thiophene-2-carboxylic acid {(S)-3-methyl-1-[6-methyl-3-oxo-1-(pyridine-2-sulfonyl)-azepan-4-ylcarbamoyl]-butyl}-amide], the inhibition constant Ki came out at 63 nM on Schisto B 1; 2.7 nM at Cruzain; 4.7 nM on Leishmania B; 2.3 nM at Rhodazain; 65 nM on Schisto B 2; 4.1 nM at Falcipain 2.
Take “Naphthlene-2-carboxylic acid ((S)-3-methyl-1-{3-oxo-1-[2-(3-pyridin-2-yl-phenyl)ethyl]-azepan-4-ylcarbamoyl}-butyl)amide [Example 10]”: the affinity on Leishmania L corresponds to a Ki of 82 nM.
